Test results reported in ChEMBL document CHEMBL2440076, “New triarylpyrazoles as broad-spectrum anticancer agents: design, synthesis, and biological evaluation” (Eur J Med Chem, 2013).

Columns and labels:
Assay type in all cases: functional
T47D = test: Growth inhibition of human T47D cells assessed as cell growth at 5X10'-7 M after 48 hrs by sulforhodamine B assay; details: read-out: Activity
PC-3 [1] = test: Growth inhibition of human PC3 cells assessed as cell growth at 5X10'-6 M after 48 hrs by sulforhodamine B assay; details: PC-3, 48 h, read-out: Activity
NCI-H23 = test: Growth inhibition of human NCI-H23 cells assessed as cell growth at 5X10'-5 M after 48 hrs by sulforhodamine B assay; details: NCI-H23, 48 h, read-out: Activity
NCI-H522 = test: Growth inhibition of human NCI-H522 cells assessed as cell growth at 5X10'-5 M after 48 hrs by sulforhodamine B assay; details: NCI-H522, 48 h, read-out: Activity
SW-620 [2] = test: Growth inhibition of human SW620 cells assessed as cell growth at 5X10'-6 M after 48 hrs by sulforhodamine B assay; details: SW-620, 48 h, read-out: Activity
RXF 393 = test: Growth inhibition of human RXF393 cells assessed as cell growth at 5X10'-8 M after 48 hrs by sulforhodamine B assay; details: RXF 393, 48 h, read-out: Activity
MDA-MB-231 [3] = test: Growth inhibition of human MDA-MB-231 cells assessed as cell growth at 5X10'-9 M after 48 hrs by sulforhodamine B assay; details: MDA-MB-231, 48 h, read-out: Activity
CCRF-CEM = test: Growth inhibition of human CCRF-CEM cells assessed as cell growth at 5X10'-5 M after 48 hrs by sulforhodamine B assay; details: read-out: Activity
LOX IMVI [4] = test: Growth inhibition of human LOXIMVI cells assessed as cell growth at 5X10'-8 M after 48 hrs by sulforhodamine B assay; details: read-out: Activity
SW-620 [5] = test: Growth inhibition of human SW620 cells assessed as cell growth at 5X10'-9 M after 48 hrs by sulforhodamine B assay; details: SW-620, 48 h, read-out: Activity
HOP-62 = test: Growth inhibition of human HOP62 cells assessed as cell growth at 5X10'-8 M after 48 hrs by sulforhodamine B assay; details: HOP-62, 48 h, read-out: Activity
ACHN = test: Growth inhibition of human ACHN cells assessed as cell growth at 5X10'-9 M after 48 hrs by sulforhodamine B assay; details: read-out: Activity
MDA-MB-435 [6] = test: Growth inhibition of human MDA-MB-435 cells assessed as cell growth at 5X10'-8 M after 48 hrs by sulforhodamine B assay; details: MDA-MB-435, 48 h, read-out: Activity
HCT-15 = test: Growth inhibition of human HCT15 cells assessed as cell growth at 5X10'-9 M after 48 hrs by sulforhodamine B assay; details: HCT-15, 48 h, read-out: Activity
UACC-257 = test: Growth inhibition of human UACC257 cells assessed as cell growth at 5X10'-8 M after 48 hrs by sulforhodamine B assay; details: UACC-257, 48 h, read-out: Activity
SF-268 = test: Growth inhibition of human SF268 cells assessed as cell growth at 5X10'-7 M after 48 hrs by sulforhodamine B assay; details: SF-268, 48 h, read-out: Activity
COLO 205 = test: Growth inhibition of human COLO205 cells assessed as cell growth at 5X10'-8 M after 48 hrs by sulforhodamine B assay; details: COLO 205, 48 h, read-out: Activity
UO-31 [7] = test: Growth inhibition of human UO31 cells assessed as cell growth at 5X10'-8 M after 48 hrs by sulforhodamine B assay; details: UO-31, 48 h, read-out: Activity
[8] = Growth inhibition of human NCI-ADR-RES cells assessed as cell growth at 5X10'-5 M after 48 hrs by sulforhodamine B assay; details: read-out: Activity
IGROV-1 = test: Growth inhibition of human IGROV1 cells assessed as cell growth at 5X10'-7 M after 48 hrs by sulforhodamine B assay; details: IGROV-1, 48 h, read-out: Activity
LOX IMVI [9] = test: Growth inhibition of human LOXIMVI cells assessed as cell growth at 5X10'-7 M after 48 hrs by sulforhodamine B assay; details: read-out: Activity
PC-3 [10] = test: Growth inhibition of human PC3 cells assessed as cell growth at 5X10'-8 M after 48 hrs by sulforhodamine B assay; details: PC-3, 48 h, read-out: Activity
SK-MEL-2 = test: Growth inhibition of human SK-MEL-2 cells assessed as cell growth at 5X10'-6 M after 48 hrs by sulforhodamine B assay; details: SK-MEL-2, 48 h, read-out: Activity
MDA-MB-435 [11] = test: Growth inhibition of human MDA-MB-435 cells assessed as cell growth at 5X10'-9 M after 48 hrs by sulforhodamine B assay; details: MDA-MB-435, 48 h, read-out: Activity
UO-31 [12] = test: Growth inhibition of human UO31 cells assessed as cell growth at 5X10'-9 M after 48 hrs by sulforhodamine B assay; details: UO-31, 48 h, read-out: Activity
[13] = Growth inhibition of human Hs 578T cells assessed as cell growth at 5X10'-7 M after 48 hrs by sulforhodamine B assay; details: read-out: Activity
NCI-H322M = test: Growth inhibition of human NCI-H322M cells assessed as cell growth at 5X10'-9 M after 48 hrs by sulforhodamine B assay; details: read-out: Activity
MDA-MB-435 [14] = test: Growth inhibition of human MDA-MB-435 cells assessed as cell growth at 5X10'-7 M after 48 hrs by sulforhodamine B assay; details: MDA-MB-435, 48 h, read-out: Activity
NCI-H460 = test: Growth inhibition of human NCI-H460 cells assessed as cell growth at 5X10'-7 M after 48 hrs by sulforhodamine B assay; details: NCI-H460, 48 h, read-out: Activity
HCT-116 = test: Growth inhibition of human HCT116 cells assessed as cell growth at 5X10'-8 M after 48 hrs by sulforhodamine B assay; details: HCT-116, 48 h, read-out: Activity
DU-145 = test: Growth inhibition of human DU145 cells assessed as cell growth at 5X10'-8 M after 48 hrs by sulforhodamine B assay; details: DU-145, 48 h, read-out: Activity
MDA-MB-435 [15] = test: Growth inhibition of human MDA-MB-435 cells assessed as cell growth at 5X10'-6 M after 48 hrs by sulforhodamine B assay; details: MDA-MB-435, 48 h, read-out: Activity
HOP-92 = test: Growth inhibition of human HOP92 cells assessed as cell growth at 5X10'-5 M after 48 hrs by sulforhodamine B assay; details: HOP-92, 48 h, read-out: Activity
UO-31 [16] = test: Growth inhibition of human UO31 cells assessed as cell growth at 5X10'-7 M after 48 hrs by sulforhodamine B assay; details: UO-31, 48 h, read-out: Activity
A498 = test: Growth inhibition of human A498 cells assessed as cell growth at 5X10'-9 M after 48 hrs by sulforhodamine B assay; details: A498, 48 h, read-out: Activity
SK-MEL-5 = test: Growth inhibition of human SK-MEL-5 cells assessed as cell growth at 5X10'-9 M after 48 hrs by sulforhodamine B assay; details: SK-MEL-5, 48 h, read-out: Activity
MDA-MB-231 [17] = test: Growth inhibition of human MDA-MB-231 cells assessed as cell growth at 5X10'-7 M after 48 hrs by sulforhodamine B assay; details: MDA-MB-231, 48 h, read-out: Activity

Q: For COc1cc(-c2nn(-c3cccc(NC(=O)Nc4cccc(C(F)(F)F)c4)c3)cc2-c2ccncc2)ccc1Cl, which growth at 0.5 µM (T47D) is on record?
A: 85%

Q: What about the growth at 5 µM (PC-3 [1]) of the same molecule?
A: -19%

Q: And the growth at 50 µM (NCI-H23)?
A: -37%

Q: And the growth at 50 µM (NCI-H522)?
A: -41%

Q: What about the growth at 5 µM (SW-620 [2]) of the same molecule?
A: 5%

Q: What about the growth at 0.05 µM (RXF 393) of the same molecule?
A: 101%

Q: What about the growth at 0.005 µM (MDA-MB-231 [3]) of the same molecule?
A: 103%

Q: What about the growth at 50 µM (CCRF-CEM) of the same molecule?
A: 3%

Q: What about the growth at 0.05 µM (LOX IMVI [4]) of the same molecule?
A: 95%

Q: What about the growth at 0.005 µM (SW-620 [5]) of the same molecule?
A: 98%

Q: What about the growth at 0.05 µM (HOP-62) of the same molecule?
A: 95%

Q: And the growth at 0.005 µM (ACHN)?
A: 104%

Q: What about the growth at 0.05 µM (MDA-MB-435 [6]) of the same molecule?
A: 97%

Q: What about the growth at 0.005 µM (HCT-15) of the same molecule?
A: 100%

Q: What about the growth at 0.05 µM (UACC-257) of the same molecule?
A: 98%

Q: And the growth at 0.5 µM (SF-268)?
A: 87%

Q: And the growth at 0.05 µM (COLO 205)?
A: 98%

Q: And the growth at 0.05 µM (UO-31 [7])?
A: 79%

Q: What about the growth at 50 µM [8] of the same molecule?
A: -9%

Q: What about the growth at 0.5 µM (IGROV-1) of the same molecule?
A: 85%

Q: And the growth at 0.5 µM (LOX IMVI [9])?
A: 81%

Q: And the growth at 0.05 µM (PC-3 [10])?
A: 90%

Q: And the growth at 5 µM (SK-MEL-2)?
A: -67%

Q: What about the growth at 0.005 µM (MDA-MB-435 [11]) of the same molecule?
A: 95%

Q: And the growth at 0.005 µM (UO-31 [12])?
A: 88%

Q: What about the growth at 0.5 µM [13] of the same molecule?
A: 80%

Q: What about the growth at 0.005 µM (NCI-H322M) of the same molecule?
A: 89%

Q: What about the growth at 0.5 µM (MDA-MB-435 [14]) of the same molecule?
A: 80%

Q: And the growth at 0.5 µM (NCI-H460)?
A: 64%

Q: What about the growth at 0.05 µM (HCT-116) of the same molecule?
A: 99%

Q: What about the growth at 0.05 µM (DU-145) of the same molecule?
A: 101%

Q: And the growth at 5 µM (MDA-MB-435 [15])?
A: -47%

Q: And the growth at 50 µM (HOP-92)?
A: -45%

Q: What about the growth at 0.5 µM (UO-31 [16]) of the same molecule?
A: 61%

Q: What about the growth at 0.005 µM (A498) of the same molecule?
A: 92%

Q: What about the growth at 0.005 µM (SK-MEL-5) of the same molecule?
A: 99%

Q: And the growth at 0.5 µM (MDA-MB-231 [17])?
A: 73%
